Assay results published in PMC11968843, “Sulphostin-inspired N-phosphonopiperidones as selective covalent DPP8 and DPP9 inhibitors” (Nature Communications, 2025).
Where two headings read alike, the source gives them in different places.

Tests used:
Format in all cases: biochemical
DPP4 [1] = target: T1, DPP4 (Homo sapiens, UniProt P27487); settings: DPP4, n=3
T1 construct: purchased Proteros Biostructures GmbH, Germany
Procedure: To calculate the reaction rate of covalent bond formation between DPP proteins and inhibitor, kinact, KI and kapp was determined as previously described[30],[51]. […] Enzyme activity was measured for a maximum of 120 min at 30 °C, and fluorescence intensities were then plotted against time. Data was fitted to the following equation: Y=(vi/kobs)*(1−exp(−kobs*X)) using Graph-Pad Prism v10.2.3. The obtained pseudo-first-order rate constant was used to determine the maximum enzyme inhibition rate (kinact) and binding affinity (KI) by fitting the plot of kobs against inhibitor concentration to the following equation: Y=kinact/1+(KI/[I]) . The efficiency of covalent bond formation (kapp) was calculated by the ratio of kinact/KI. All measurements were performed in triplicates and error bars represent standard errors of the fit.

DPP8 [2] = target: T2, DPP8 (Homo sapiens, UniProt Q6V1X1); experiment: Time-dependent DPP8 inhibition kinetics (kobs, KI, kinact, kapp); settings: for kobs: n=3
T2 construct: purchased Proteros Biostructures GmbH, Germany
T2 sequence (Q6V1X1 whole entry): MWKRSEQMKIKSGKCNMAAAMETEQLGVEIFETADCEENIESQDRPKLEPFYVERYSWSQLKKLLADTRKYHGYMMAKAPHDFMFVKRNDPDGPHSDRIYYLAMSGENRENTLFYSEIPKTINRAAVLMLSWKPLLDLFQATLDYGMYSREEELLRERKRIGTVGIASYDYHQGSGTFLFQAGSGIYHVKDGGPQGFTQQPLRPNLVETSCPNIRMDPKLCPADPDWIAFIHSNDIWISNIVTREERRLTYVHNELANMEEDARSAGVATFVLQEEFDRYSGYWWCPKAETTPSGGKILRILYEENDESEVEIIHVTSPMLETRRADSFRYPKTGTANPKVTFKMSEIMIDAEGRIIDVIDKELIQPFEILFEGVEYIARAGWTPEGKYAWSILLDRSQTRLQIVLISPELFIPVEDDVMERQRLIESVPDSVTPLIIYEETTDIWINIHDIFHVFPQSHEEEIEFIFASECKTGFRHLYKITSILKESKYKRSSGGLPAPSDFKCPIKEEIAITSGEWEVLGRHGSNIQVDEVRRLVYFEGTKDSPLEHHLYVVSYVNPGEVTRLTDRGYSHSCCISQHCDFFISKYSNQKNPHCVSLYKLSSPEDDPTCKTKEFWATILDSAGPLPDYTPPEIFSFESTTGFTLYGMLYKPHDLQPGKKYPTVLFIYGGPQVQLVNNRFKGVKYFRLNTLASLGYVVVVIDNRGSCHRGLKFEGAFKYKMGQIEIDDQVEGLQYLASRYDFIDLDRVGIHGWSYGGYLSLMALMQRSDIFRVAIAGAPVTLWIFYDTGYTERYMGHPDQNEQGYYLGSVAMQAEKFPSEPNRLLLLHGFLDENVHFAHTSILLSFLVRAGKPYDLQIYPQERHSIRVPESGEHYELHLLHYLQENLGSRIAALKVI
Procedure: (§1) To calculate the reaction rate of covalent bond formation between DPP proteins and inhibitor, kinact, KI and kapp was determined as previously described[30],[51]. Therefore, 250 µM GP-AMC was added simultaneously with a serial dilution of the inhibitor to 10 nM enzyme. Enzyme activity was measured for a maximum of 120 min at 30 °C, and fluorescence intensities were then plotted against time. Data was fitted to the following equation: Y=(vi/kobs)*(1−exp(−kobs*X)) using Graph-Pad Prism v10.2.3. The obtained pseudo-first-order rate constant was used to determine the maximum enzyme inhibition rate (kinact) and binding affinity (KI) by fitting the plot of kobs against inhibitor concentration to the following equation: Y=kinact/1+(KI/[I]) . The efficiency of covalent bond formation (kapp) was calculated by the ratio of kinact/KI. All measurements were performed in triplicates and error bars represent standard errors of the fit.

DPP4 [3] = target: T1, DPP4; experiment: biochemical
Procedure: (§2) Enzyme activity of DPP4, DPP8, DPP9 (Proteros Biostructures GmbH, Germany) and PREP (Sigma Aldrich, USA) was determined by measuring the initial velocity of AMC release from the fluorogenic substrate GP-AMC (Sigma Aldrich, USA) using a Tecan Spark® 10 M multimode microplate reader (Tecan Group Ltd., Switzerland) in activity buffer (20 mM HEPES/KOH pH 7.3, 110 mM potassium acetate, 2 mM Mg acetate, 0.5 mM EGTA, 0.02% Tween 20, supplemented with 1 mM DTT) and a final volume of 20 μL for maximal 60 min at 30 °C. Prior to activity measurement, 10 nM enzyme was incubated for 45 min at 30 °C and gentle shaking with the inhibitor compounds in concentrations ranging from 0 to 100 μM. The compounds were dissolved in DMSO and diluted in activity buffer (final DMSO concentration: 1%). […] IC50 values were calculated using Graph-Pad Prism v10.2.3 using the equation: [Inhibitor] vs. response—Variable slope (four parameters). All measurements were performed in triplicates and error bars represent standard errors of the fit.

DPP8 [4] = target: T2, DPP8; experiment: biochemical
Procedure: as §2

DPP9 [5] = target: T3, DPP9 (Homo sapiens, UniProt Q86TI2); experiment: Time-dependent DPP9 inhibition kinetics (kobs, KI, kinact, kapp); design: purchased Proteros Biostructures GmbH, Germany; settings: DPP9, n=3
T3 sequence (Q86TI2 whole entry): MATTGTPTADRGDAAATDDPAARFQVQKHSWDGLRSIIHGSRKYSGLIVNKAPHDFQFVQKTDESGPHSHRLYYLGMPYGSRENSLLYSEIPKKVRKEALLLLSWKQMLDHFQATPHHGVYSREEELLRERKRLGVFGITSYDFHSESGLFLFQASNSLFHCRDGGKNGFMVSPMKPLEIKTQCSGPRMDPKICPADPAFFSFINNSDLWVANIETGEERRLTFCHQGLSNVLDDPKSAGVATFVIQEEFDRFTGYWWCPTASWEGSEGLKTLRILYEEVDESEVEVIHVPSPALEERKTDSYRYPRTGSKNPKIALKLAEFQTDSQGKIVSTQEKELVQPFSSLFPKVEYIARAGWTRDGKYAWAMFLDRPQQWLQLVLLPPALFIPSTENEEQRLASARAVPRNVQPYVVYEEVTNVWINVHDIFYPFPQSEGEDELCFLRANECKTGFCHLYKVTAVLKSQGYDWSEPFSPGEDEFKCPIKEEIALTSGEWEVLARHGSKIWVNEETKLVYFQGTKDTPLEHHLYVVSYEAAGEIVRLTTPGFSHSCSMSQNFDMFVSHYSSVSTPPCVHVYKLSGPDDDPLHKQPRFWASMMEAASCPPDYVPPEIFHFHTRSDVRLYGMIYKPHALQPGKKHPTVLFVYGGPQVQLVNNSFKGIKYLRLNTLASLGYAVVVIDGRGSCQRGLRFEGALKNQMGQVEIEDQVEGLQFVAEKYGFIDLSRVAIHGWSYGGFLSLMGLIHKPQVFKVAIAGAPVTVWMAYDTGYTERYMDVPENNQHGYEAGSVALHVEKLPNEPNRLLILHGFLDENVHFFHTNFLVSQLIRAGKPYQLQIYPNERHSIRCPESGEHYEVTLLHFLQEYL
Procedure: as §1

DPP9 [6] = target: T3, DPP9; experiment: biochemical; design: purchased Proteros Biostructures GmbH, Germany
Procedure: as §2

T1 sequence (P27487 whole entry): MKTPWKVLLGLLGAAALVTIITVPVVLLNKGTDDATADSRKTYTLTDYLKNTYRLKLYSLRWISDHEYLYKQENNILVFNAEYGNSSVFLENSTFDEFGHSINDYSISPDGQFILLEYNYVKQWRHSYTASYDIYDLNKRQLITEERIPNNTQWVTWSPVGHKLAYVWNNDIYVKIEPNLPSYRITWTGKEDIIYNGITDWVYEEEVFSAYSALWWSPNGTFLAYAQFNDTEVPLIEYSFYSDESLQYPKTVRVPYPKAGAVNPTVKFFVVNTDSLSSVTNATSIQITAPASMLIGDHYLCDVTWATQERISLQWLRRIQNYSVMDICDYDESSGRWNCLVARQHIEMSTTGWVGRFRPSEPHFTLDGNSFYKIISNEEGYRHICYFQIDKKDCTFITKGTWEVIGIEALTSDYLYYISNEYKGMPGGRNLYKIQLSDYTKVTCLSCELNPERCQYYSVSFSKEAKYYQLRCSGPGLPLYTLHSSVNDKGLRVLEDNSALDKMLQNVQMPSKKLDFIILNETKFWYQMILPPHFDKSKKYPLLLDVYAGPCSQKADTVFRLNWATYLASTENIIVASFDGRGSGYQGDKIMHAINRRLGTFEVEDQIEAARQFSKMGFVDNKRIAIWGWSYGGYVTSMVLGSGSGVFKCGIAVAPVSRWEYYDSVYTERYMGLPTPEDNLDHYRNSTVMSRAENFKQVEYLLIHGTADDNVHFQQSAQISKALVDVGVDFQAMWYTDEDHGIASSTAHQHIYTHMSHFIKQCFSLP

`CCCCCCP(=O)(OCC)N1CCC[C@H](N)C1=O` (some centres unmarked) [Compound 5] was tested, and the kobs (DPP4 [1]; c 25000 nM) was 0.001878 s⁻¹, the kobs (DPP4 [1]; c 50000 nM) was 0.001819 s⁻¹ and the kobs (DPP4 [1]; c 100000 nM) was 0.001824 s⁻¹. The kapp (DPP8 [2]; DPP8) was 36.00 M⁻¹ s⁻¹, the kinact best fit (DPP8 [2]; DPP8) was 0.0004148 s⁻¹ and the kobs (DPP8 [2]; DPP8, c 1562.5 nM) was 9.14e-05 s⁻¹. The kobs (DPP8 [2]; DPP8, c 6250 nM) was 0.000151 s⁻¹, the kobs (DPP8 [2]; DPP8, c 25000 nM) was 0.000235 s⁻¹ and the kobs (DPP8 [2]; DPP8, c 50000 nM) was 0.00037 s⁻¹. The “kapp DPP8” value (DPP8 [2]; ratio kinact/KI) was 36 M⁻¹ s⁻¹, the KI (inactivation) (DPP8 [2]; read-out: KI DPP8, irreversible inhibition, fit of kobs vs inhibitor concentration) was 11.5 µM and the KI (inactivation) (DPP8 [2]; read-out: KI best fit, DPP8) was 11.5 µM. It also gave a KI (inactivation) (DPP8 [2]; read-out: KI best fit, DPP8, fit of kobs vs inhibitor concentration) of 11.5 µM, a kinact (DPP8 [2]; read-out: kinact DPP8, irreversible inhibition, fit of kobs vs inhibitor concentration) of 0.00042 ± 7e-05 s⁻¹ and a kinact (DPP8 [2]; read-out: kinact best fit, DPP8) of 0.000415 s⁻¹. It also gave an IC50 (DPP4 [3]; IC50 DPP4, GP-AMC 250 µM, 10 nM enzyme, 45 min pre-incubation at 30 °C) of 46.7 µM, a remaining activity at 1.5625 µM (DPP4 [3]; read-out: DPP4 activity [%], c 1562.5 nM, replicates) of 101% and a remaining activity at 3.125 µM (DPP4 [3]; read-out: DPP4 activity [%], c 3125 nM, replicates) of 103%. For the same compound, the remaining activity at 6.25 µM (DPP4 [3]; read-out: DPP4 activity [%], c 6250 nM, replicates) was 105%, the remaining activity at 25 µM (DPP4 [3]; read-out: DPP4 activity [%], c 25000 nM, replicates) was 79.6% and the remaining activity at 50 µM (DPP4 [3]; read-out: DPP4 activity [%], c 50000 nM, replicates) was 44.3%. The remaining activity at 100 µM (DPP4 [3]; read-out: DPP4 activity [%], c 100000 nM, replicates) was 23.3%, the IC50 (DPP8 [4]) was 13.7 µM and the remaining activity at 1.5625 µM (DPP8 [4]; read-out: DPP8 activity [%], c 1562.5 nM, replicates) was 94.2%. The remaining activity at 3.125 µM (DPP8 [4]; read-out: DPP8 activity [%], c 3125 nM, replicates) was 84.3%, the remaining activity at 6.25 µM (DPP8 [4]; read-out: DPP8 activity [%], c 6250 nM, replicates) was 64.1% and the remaining activity at 15.625 µM (DPP8 [4]; read-out: DPP8 activity [%], c 15625 nM, replicates) was 42.1%. The remaining activity at 25 µM (DPP8 [4]; read-out: DPP8 activity [%], c 25000 nM, replicates) was 28.4%, the remaining activity at 31.25 µM (DPP8 [4]; read-out: DPP8 activity [%], c 31250 nM, replicates) was 19.4% and the remaining activity at 50 µM (DPP8 [4]; read-out: DPP8 activity [%], c 50000 nM, replicates) was 13.9%. For the same compound, the remaining activity at 62.5 µM (DPP8 [4]; read-out: DPP8 activity [%], c 62500 nM, replicates) was 4.38%, the remaining activity at 100 µM (DPP8 [4]; read-out: DPP8 activity [%], c 100000 nM, replicates) was 5.19% and the kobs (DPP9 [5]; c 25000 nM) was 0.000207 s⁻¹. The kobs (DPP9 [5]; c 50000 nM) was 0.000227 s⁻¹, the kobs (DPP9 [5]; c 100000 nM) was 0.000318 s⁻¹ and the IC50 (DPP9 [6]) was 42.7 µM. For the same compound, the remaining activity at 1.5625 µM (DPP9 [6]; read-out: DPP9 activity [%], c 1562.5 nM, replicates) was 97%, the remaining activity at 3.125 µM (DPP9 [6]; read-out: DPP9 activity [%], c 3125 nM, replicates) was 96.9% and the remaining activity at 6.25 µM (DPP9 [6]; read-out: DPP9 activity [%], c 6250 nM, replicates) was 89.1%. The remaining activity at 15.625 µM (DPP9 [6]; read-out: DPP9 activity [%], c 15625 nM, replicates) was 77.4%, the remaining activity at 25 µM (DPP9 [6]; read-out: DPP9 activity [%], c 25000 nM, replicates) was 65.7% and the remaining activity at 31.25 µM (DPP9 [6]; read-out: DPP9 activity [%], c 31250 nM, replicates) was 60.7%. The remaining activity at 50 µM (DPP9 [6]; read-out: DPP9 activity [%], c 50000 nM, replicates) was 45.5%, the remaining activity at 62.5 µM (DPP9 [6]; read-out: DPP9 activity [%], c 62500 nM, replicates) was 38.8% and the remaining activity at 100 µM (DPP9 [6]; read-out: DPP9 activity [%], c 100000 nM, replicates) was 22.1%. It also gave a remaining activity at 250 µM (DPP9 [6]; read-out: DPP9 activity [%], c 250000 nM, replicates) of 5.77% and a remaining activity at 500 µM (DPP9 [6]; read-out: DPP9 activity [%], c 500000 nM, replicates) of 1.09%.
